According to patent US9670514B2, “Method for producing polysaccharide” (SANYO CHEMICAL INDUSTRIES, LTD., priority 2011, dated 2017):

Key:
[1] = target: T1, hyaluronan synthase (Streptococcus pyogenes, UniProt P0C0H0, K60N); experiment: Inhibitory concentration IC50 of uridine diphosphate against hyaluronan synthase (HPLC of hyaluronan); assay type: biochemical, Streptococcus equisimilis; details: hyaluronan synthase (B-1) 1.5 U/mL, 40° C., pH 7.5
T1 construct: FLAG; made in house; host or cells: Escherichia coli SURE, plasmid pKK223-3
T1 sequence (P0C0H0 1-419 K60N): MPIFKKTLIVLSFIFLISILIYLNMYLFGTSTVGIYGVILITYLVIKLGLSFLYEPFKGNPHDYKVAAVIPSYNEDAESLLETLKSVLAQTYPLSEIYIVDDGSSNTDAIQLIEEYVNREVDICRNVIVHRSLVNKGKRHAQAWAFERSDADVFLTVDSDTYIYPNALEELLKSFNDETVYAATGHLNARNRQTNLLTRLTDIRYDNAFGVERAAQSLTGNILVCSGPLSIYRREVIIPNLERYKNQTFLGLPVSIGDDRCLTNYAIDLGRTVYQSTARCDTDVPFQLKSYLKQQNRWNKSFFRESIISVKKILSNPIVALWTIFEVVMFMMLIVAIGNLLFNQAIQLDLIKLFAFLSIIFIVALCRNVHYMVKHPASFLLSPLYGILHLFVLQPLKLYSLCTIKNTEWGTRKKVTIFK
Method: An enzyme reaction solution (I) containing specific amounts of polysaccharide synthase (B), ribonucleoside diphosphate-monosaccharide (A), ribonucleoside diphosphate, pH adjuster (K), and water is prepared, which is adjusted to a specific temperature and a specific pH. […]
A portion (e.g., 100 μL) of the enzyme reaction solution (I) prepared is extracted immediately after preparation and at certain time intervals (e.g., 5 min). […] Using liquid chromatography (hereinafter abbreviated as HPLC), the amount of polysaccharide in each extracted reaction solution is quantitated. An initial enzyme reaction velocity v (M/s) is calculated from the difference ΔP (ΔP=Ph−P0) in peak areas and a calibration curve based on the peak areas of the polysaccharide, wherein P0 is the peak area immediately after preparation of the enzyme reaction solution (I), and Ph is the peak area after h hour(s) from preparation. […]

[2] = target: T2, chondroitin synthase (Pasteurella multocida, UniProt Q9CMP0); experiment: Inhibitory concentration IC50 against chondroitin synthase; assay type: biochemical
T2 construct: FLAG; made in house; host or cells: Escherichia coli SURE, as in Preparation 1
Method: Hyaluronan synthase aqueous solution (B-1) obtained in Preparation 1 was dissolved to a concentration of 1.5 U/mL in 940 μL of aqueous solution 1 (50 mM phosphate buffer (pH of 7.5, 25° C.) containing 5 mM magnesium chloride and 0.05 mM sodium uridine diphosphate) in a 1.5 mL-tube. The tube was allowed to stand at 40° C. for 20 minutes in a constant temperature water bath. To the tube was added 50 μL of temperature-adjusted (40° C.) substrate solution [1-1] (a solution obtained by dissolving uridine diphosphate-glucuronic acid sodium salt and uridine diphosphate-N-acetylglucosamine both to a concentration of 20 mM in buffer solution B (50 mM phosphate buffer, pH of 7.5, 25° C.)). Thereby, enzyme reaction solution (I-1) was obtained. […] The supernatant (80 μL) was analyzed by HPLC under the following conditions, and the peak areas of hyaluronan were recorded. […]
The inhibitory concentration IC50 was measured in a similar manner as in “Measurement of the inhibitory concentration IC50 against hyaluronan synthase”, except that “chondroitin synthase aqueous solution (B-2) obtained in Preparation 11” was used in place of “hyaluronan synthase aqueous solution (B-1) obtained in Preparation 1”, “substrate solution [1-2] […]
The inhibitory concentration IC50 was also determined in a similar manner, except that the amount of chondroitin synthase aqueous solution (B-2) was changed from 1.5 U/mL to 45 U/mL.

SMILES: O=c1ccn([C@@H]2O[C@H](COP(=O)(O)OP(=O)(O)O)[C@@H](O)[C@H]2O)c(=O)[nH]1 [uridine diphosphate]
- IC50 [1]: 110 µM
- IC50 [2]: 85 µM
